Source: ChEMBL document CHEMBL3784965, “Discovery of (R)-6-(1-(8-Fluoro-6-(1-methyl-1H-pyrazol-4-yl)-[1,2,4]triazolo[4,3-a]pyridin-3-yl)ethyl)-3-(2-methoxyethoxy)-1,6-naphthyridin-5(6H)-one (AMG 337), a Potent and Selective Inhibitor of MET with High Unbound Target Coverage and Robust In Vivo Antitumor Activity” (J Med Chem, 2016)

What was measured:
[1] = test system: Mus musculus; test: In vivo inhibition of HGF-induced phosphorylation of MET in Balb/c mouse liver assessed as phosphorylated cMET level at 10 mg/kg administered via oral gavage followed by HGF injection 24 hrs post dose by electrochemiluminescence immunoassay relative to control; format: functional; set-up: scale not given: the % may be the effect or the level left
[2] = organism: Rattus norvegicus; test: Unbound clearance in Sprague-Dawley rat at 5 ug/ml by equilibrium dialysis method; format: ADME, organism-based; details: in vivo
[3] = Oral bioavailability in Sprague-Dawley rat at 2 mg/kg; format: ADME, organism-based; details: in vivo
[4] = Half life in Sprague-Dawley rat; format: ADME, organism-based; details: in vivo
[5] = Clearance in Sprague-Dawley rat at 0.25 mg/kg, iv; format: ADME, organism-based; details: in vivo
[6] = Fraction unbound in Sprague-Dawley rat plasma at 5 ug/ml by equilibrium dialysis method; format: ADME, cell-free
[7] = Clearance in Beagle dog at 0.713 mg/kg, iv; format: ADME, organism-based, Canis lupus familiaris; details: in vivo
[8] = Fraction unbound in mouse plasma at 5 ug/ml by equilibrium dialysis method; format: ADME, cell-free
[9] = Fraction unbound in human plasma at 5 ug/ml by equilibrium dialysis method; format: ADME, cell-free
[10] = Volume of distribution at steady state in Sprague-Dawley rat; format: ADME, organism-based; details: in vivo, read-out: Vdss
[11] = Intrinsic clearance in rat liver microsomes; format: ADME; details: read-out: CLH
[12] = Intrinsic clearance in mouse liver microsomes; format: ADME; details: read-out: CLH
[13] = Intrinsic clearance in human liver microsomes; format: ADME; details: read-out: CLH
[14] = organism: Canis familiaris; test: Unbound clearance in Beagle dog at 5 ug/ml by equilibrium dialysis method; format: ADME, organism-based, Canis lupus familiaris; details: in vivo
[15] = Volume of distribution at steady state in iv dosed Beagle dog; format: ADME, organism-based, Canis lupus familiaris; details: in vivo, read-out: Vdss
[16] = Half life in iv dosed Beagle dog; format: ADME, organism-based, Canis lupus familiaris; details: in vivo
[17] = AUC(0 to infinity) in Beagle dog at 10 mg/kg,po; format: ADME, organism-based, Canis lupus familiaris; set-up: dose 10 mg/kg, route oral, time infinity; details: in vivo
[18] = Oral bioavailability in Beagle dog at 10 mg/kg; format: ADME, organism-based, Canis lupus familiaris; details: in vivo
[19] = AUC(0 to infinity) in Beagle dog at 30 mg/kg, po; format: ADME, organism-based, Canis lupus familiaris; set-up: dose 30 mg/kg, time infinity, route oral; details: in vivo
[20] = (§1) Antitumor activity against mouse NIH-3T3/TPR-Met cells xenografted in CD1 mouse assessed as tumor growth inhibition administered as oral gavage, qd over 22 days; format: functional; details: NIH3T3, po, 528 h
[21] = test system: Mus musculus; test: as §1; format: functional
[22] = test system: Mus musculus; test: Toxicity in CD1 mouse xenografted with mouse NIH-3T3/TPR-Met cells assessed as effect on body weight at 0.1 to 10 mg/kg, qd administered as oral gavage over 22 days; format: organism-based; details: in vivo, 528 h
[23] = test system: Mus musculus; test: In vivo inhibition of HGF-induced phosphorylation of MET in Balb/c mouse liver assessed as phosphorylated cMET level at 10 mg/kg administered via oral gavage followed by HGF injection 1 hr post dose by electrochemiluminescence immunoassay relative to control; format: functional; set-up: scale not given: the % may be the effect or the level left
[24] = test system: Mus musculus; test: In vivo inhibition of HGF-induced phosphorylation of MET in Balb/c mouse liver assessed as phosphorylated cMET level at 10 mg/kg administered via oral gavage followed by HGF injection 3 hrs post dose by electrochemiluminescence immunoassay relative to control; format: functional; set-up: scale not given: the % may be the effect or the level left
[25] = test system: Mus musculus; test: In vivo inhibition of HGF-induced phosphorylation of MET in Balb/c mouse liver assessed as phosphorylated cMET level at 10 mg/kg administered via oral gavage followed by HGF injection 6 hrs post dose by electrochemiluminescence immunoassay relative to control; format: functional; set-up: scale not given: the % may be the effect or the level left
[26] = test system: Mus musculus; test: In vivo inhibition of HGF-induced phosphorylation of MET in Balb/c mouse liver assessed as phosphorylated cMET level at 10 mg/kg administered via oral gavage followed by HGF injection 9 hrs post dose by electrochemiluminescence immunoassay relative to control; format: functional; set-up: scale not given: the % may be the effect or the level left
[27] = test system: Mus musculus; test: In vivo inhibition of HGF-induced phosphorylation of MET in Balb/c mouse liver assessed as phosphorylated cMET level at 10 mg/kg administered via oral gavage followed by HGF injection 12 hrs post dose by electrochemiluminescence immunoassay relative to control; format: functional; set-up: scale not given: the % may be the effect or the level left
[28] = Oral bioavailability in Beagle dog at 30 mg/kg; format: ADME, organism-based, Canis lupus familiaris; details: in vivo
[29] = biological target: T1, Cytochrome P450 3A4 (Homo sapiens, UniProt P08684); test: Inhibition of CYP3A4 (unknown origin) in presence of NADPH; format: ADME; details: human
T1 sequence (P08684 whole entry): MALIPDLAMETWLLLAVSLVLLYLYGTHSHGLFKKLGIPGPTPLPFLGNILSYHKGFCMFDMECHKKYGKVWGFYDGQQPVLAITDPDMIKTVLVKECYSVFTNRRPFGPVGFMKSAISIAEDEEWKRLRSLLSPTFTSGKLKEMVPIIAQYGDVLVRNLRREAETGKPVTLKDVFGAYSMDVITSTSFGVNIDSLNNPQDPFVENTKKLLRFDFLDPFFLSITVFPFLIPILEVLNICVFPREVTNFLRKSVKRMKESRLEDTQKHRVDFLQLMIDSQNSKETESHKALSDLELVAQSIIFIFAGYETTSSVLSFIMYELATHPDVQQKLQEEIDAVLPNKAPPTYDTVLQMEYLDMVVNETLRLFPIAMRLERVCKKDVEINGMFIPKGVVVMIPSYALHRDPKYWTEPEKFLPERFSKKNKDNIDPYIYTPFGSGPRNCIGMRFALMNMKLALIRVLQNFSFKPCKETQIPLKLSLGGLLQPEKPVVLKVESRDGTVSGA

[30] = biological target: T1, Cytochrome P450 3A4; test: Inhibition of CYP3A4 (unknown origin) in absence of NADPH; format: ADME; details: human
[31] = test system: Plasma; test: Unbound plasma concentration in mouse at 10 mg/kg, po measured at 9 hrs; format: ADME, organism-based; details: in vivo

| Structure (SMILES) | Activity [1] | CL free [2] | bioavailability [3] | half-life [4] | clearance [5] | fraction unbound at 5 ug/ml [6] | fraction unbound at 5 ug/ml [8] | fraction unbound at 5 ug/ml [9] | Vd [10] | microsomal CLint [11] | microsomal CLint [12] | microsomal CLint [13] | Activity [23] | Activity [24] | Activity [25] | Activity [26] | Activity [27] | also measured |
| --- | --- | --- | --- | --- | --- | --- | --- | --- | --- | --- | --- | --- | --- | --- | --- | --- | --- | --- |
| COCCOc1cnc2ccn([C@H](C)c3nnc4c(F)cc(-c5cnn(C)c5)cn34)c(=O)c2c1 [AMG-337] | 51% | 1.6 L/h/kg | 30% | 180 min | 4.5 mL/min/kg | 0.174 | 0.366 | 0.419 | 0.9 L/kg | 6 µL/min/mg | 8 µL/min/mg | 9 µL/min/mg | 101% | 98% | 98% | 92% | 92% | clearance [7]: 3.83 mL/min/kg; CL free [14]: 0.46 L/h/kg; Vd [15]: 1.1 L/kg; half-life [16]: 354 min; AUC(0-inf) [17]: 21000 ng·h/mL; bioavailability [18]: 49%; AUC(0-inf) [19]: 82600 ng·h/mL; ED50 [20]: 0.3 mg/kg; ED90 [20]: 0.8 mg/kg; Activity [21]: Dose-dependent effect; Activity [22]: Non-toxic; bioavailability [28]: 64% |
| Cc1cc(-c2cc(F)c3nnc([C@@H](C)n4ccc5ncccc5c4=O)n3c2)on1 | 12% | 1.9 L/h/kg | 44% | 48 min | 6.33 mL/min/kg | 0.196 | 0.245 | 0.32 | 0.4 L/kg | 8 µL/min/mg | < 5 µL/min/mg | 14 µL/min/mg | 100% | 101% | 98% | 91% | 40% | TDI [29]: Not Active; TDI [30]: Not Active; Cp(f) [31]: 193 nM |
